Results published in US20220387467A1, “USE OF SGLT2 INHIBITORS TO TREAT PRIMARY BILLIARY CHOLANGITIS” (AVOLYNT, priority 2019, published 2022).
“Also recorded” adds a separate entry of the source.

Assays:
[1] = system: TIA mice; assay: TIA mouse model of liver and biliary disease resembling PBC/PSC, H&E liver histology and survival; type: in vivo; settings: for inflammation at the interface between the hepatic parenchyma and the portal tracts (interface hepatitis) / proliferation of bile ductules (bile ductular proliferation) / periportal and biliary inflammation: TIA mice at 11 weeks, H&E liver sections, vs untreated TIA mice; for inflammation at the interface between the hepatic parenchyma and the portal tracts (interface hepatitis): 0.03% in chow for 7 weeks; for proliferation of bile ductules (bile ductular proliferation) / periportal and biliary inflammation: 0.03% in chow from 4 weeks of age
Text: The following Examples describe the utilization of a murine model of liver damage to assess the effectiveness of a treatment regimen based on the oral administration of remogliflozin etabonate. The murine model is based on mice that are deficient for the expression of tumor necrosis factor alpha (“TNFα”), interleukin 10 (“IL-10”), and activation-induced cytidine deaminase (“AICDA”). As the mice are deficient in TNF, IL-10, and AICDA, they are referred to, herein, as “TIA” mice. These liver outcomes in these animals also closely resemble that of PBC.
Moreover, as AICDA is required for immunoglobulin (“Ig”) class switching, TIA mice lack IgG and IgA, a phenotype analogous to humans with hyper-IgM syndrome. Therefore, with the combination of AICDA deficiency with the risk factors associated with TNFα and IL-10 deficiencies, TIA mice also develop liver and biliary inflammation reminiscent of PSC and PBC symptoms in humans. Accordingly, the TIA model is useful for investigating mechanisms that act early in PBC pathogenesis, as well as treatments that can prevent progression to PBC and PSC.
Example 1. Orally-administered remogliflozin etabonate reduces inflammatory cell infiltration, bile ductular proliferation, and interface hepatitis in TIA mice. TIA mice were created by first breeding TNFα knock out (“KO”) C57BL/6 mice, (strain B6.129S-Tnf^tm1Gkl/J, stock #005540, Jackson Laboratories, Bar Harbor, Me.) with IL-10 KO mice (strain B10.129P2(B6)-IL10^tm1Cgn/J, Stock No. 002251, Jackson Laboratories) to produce a population of mice that were deficient in TNFα and IL-10. Because mice with a TNFα −/− and IL10 −/− genotype spontaneously develop inflammatory bowel disease (“IBD”) (Hale 2012), a condition associated with poor breeding success (Nagy 2016), the mice needed for further breeding to generate an AICDA population, were generated by breeding offspring with a TNFα and IL10+/− genotype with AICDA −/− mice, which were obtained from Dr. Tasuku Honjo (Muramatsu 2000)), to produce a population of TNFα −/−, IL10 −/−, and AICDA+/−(“TI-hetA”) males and females. In turn, TI-hetA pairs were bred to generate populations that were 25% TIA mice, and 50% non-colitis-susceptible TI-hetA littermates that could be used as control populations. All populations were exposed to the same environment from birth. The mice were housed in polycarbonate micro-isolator cages, in individually ventilated racks, under barrier conditions that excluded all known pathogens, including Helicobacter pylori and Norovirus. Mice had ad libitum access to water, and to a standard diet (PicoLab Mouse Diet 20/5058, LabDiet, St. Louis, Mo., USA).
At four (4) weeks of age, TIA (40) and TI-hetA (22) mice were randomized into experimental groups that received either a standard diet (20 TIA and 12 het), or a standard diet formulated 0.03% remogliflozin etabonate (20 TIA and 10 het) (Avolynt Inc., USA). The mice were maintained on this diet for seven (7) weeks. Body weights were obtained three (3) times, weekly, to assess the general health of mice, and to track the development of inflammatory bowel disease (IBD). Glycosuria in the experimental groups was assessed by applying freshly voided urine directly to the glucose test patch on an Accutest® URS-10 urinary reagent test strips (Jant Pharmaceutical Corp., Encino, Calif., USA). Mice were humanely euthanized before reaching the experimental endpoint, of eleven (11) weeks of age, if they lost >15% body weight, or developed rectal prolapse.
To characterize biliary lesions in TIA mice at the end of the 7 week treatment period, liver tissue was obtained from the remogliflozin-treated, and untreated groups, for histologic examination. The excised liver tissue was fixed in Carnoy's fixative solution, and processed into paraffin blocks. The paraffin blocks were sectioned, and stained with Hematoxylin and eosin (H&E) for pathologic analysis. The H&E-stained sections were scored by an American Board of Pathology-certified pathologist. […]

[2] = Plasma remogliflozin after oral immediate release (IR) tablet; type: in vivo
Text: Oral dosage forms according to the invention are typically tablets or capsules. Tablets can be obtained by direct compression of the mixed components of a dosage form, including a therapeutically effective amount of an SGLT2 inhibitor, and selected excipients, like cellulose derivatives, metacrylates, chitosan, carboxymethylstarch, or mixtures thereof. For example, a compressed tablet according to the invention, can be prepared by granulating a SGLT2 inhibitor with microcrystalline cellulose and croscarmellose sodium with a water and povidone solution. The resulting granules are dried, milled, and then blended with mannitol, microcrystalline cellulose, and croscarmellose. The blend is lubricated with magnesium stearate and compressed. […] Indeed, Tmax for an IR remogliflozin etabonate oral dosage form according to the invention occurs at 1 hour, or less, following ingestion of the dosage form by a subject.

CCOC(=O)OC[C@H]1O[C@@H](Oc2nn(C(C)C)c(C)c2Cc2ccc(OC(C)C)cc2)[C@H](O)[C@@H](O)[C@@H]1O [remogliflozin etabonate]
number of TIA mice that required early euthanasia ([1]; Remo group versus control group, 7 week study): no statistical difference | early death ([1]; Remo group versus control group, not statistically significant): trend toward decreased early death | inflammation at the interface between the hepatic parenchyma and the portal tracts (interface hepatitis) [1]: reduces | inflammation at the interface between the hepatic parenchyma and the portal tracts (interface hepatitis) ([1]; listed as remogliflozin): less inflammation | proliferation of bile ductules (bile ductular proliferation) [1]: reduces | periportal and biliary inflammation ([1]; listed as Remo): decrease in periportal and biliary inflammation | proliferation of bile ductules (bile ductular proliferation) ([1]; listed as Remo): decrease in proliferation of bile ductules | periportal and biliary inflammation ([1]; listed as remogliflozin): less inflammation | proliferation of bile ductules (bile ductular proliferation) ([1]; listed as remogliflozin): less proliferation of bile ductiles | development and progression of liver and biliary disease ([1]; TIA mice, 0.03% remogliflozin etabonate in diet for 7 weeks from 4 weeks of age, vs standard diet): prevents the progression of PBC disease pathology; also recorded: markedly less development and progression of liver and biliary disease | inflammatory cell infiltration ([1]; TIA mice, oral, 0.03% in diet for 7 weeks): reduces | Tmax ([2]; IR remogliflozin etabonate oral dosage form, following ingestion): ≤ 1 h | remogliflozin plasma concentration after clearance ([2]; compressed IR tablet, 350 mg remogliflozin etabonate, oral, after 3 hrs): 40 ng/mL | maximum remogliflozin plasma concentration (Cmax) ([2]; compressed IR tablet, 350 mg remogliflozin etabonate, oral, at 1 hr post-ingestion): 160 ng/mL
